Measured values: the supplement of paper PMC3068080

Tests used:
TGFBR2 mRNA = assay: remaining TGFBR2 mRNA relative to control siRNA (off-target knock-down) (fraction of control); quantification method: branched DNA; higher = less knock-down
Protocol: (§1)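 Screen-hit siRNA duplexes (19-mer plus 3' dTdT overhang) were transiently transfected into HaCaT cells in 12-well plates. After 48 h, TGFBR1 and TGFBR2 mRNA were quantified by branched DNA assay (QuantiGene, normalised to HPRT1) or by SYBR qPCR (normalised to HPRT1/SMAD4). Values are the remaining mRNA relative to control-siRNA-transfected cells; 1-2 biological replicates.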

TGFBR1 mRNA = assay: remaining TGFBR1 mRNA relative to control siRNA (off-target knock-down) (fraction of control); quantification method: branched DNA; higher = less knock-down
Protocol: as §1

Sequence	remaining TGFBR2 mRNA (TGFBR2 mRNA)	remaining TGFBR1 mRNA (TGFBR1 mRNA)
UGCGUUUACGGUUCACACGTT	0.6	0.69
UACUUAAAGCCAGGGCCACTT	0.77	1.32
AUGCACUGAAGAAUUUCUUTT	0.75	0.43
UCCUUGUCCUUGGACAGUGTT	0.24	1.14
AUGUCUCAAAGUCAAAAAATT	0.58	0.92
AGAGAUUCCUUUUCUUCACTT	0.79	0.24
UGUCCUGGUCACACUUCCATT	0.5	0.23
AUGUAUAGGUAGUGCACAGTT	0.35	0.98
UGGACAUGGAGUGGCCUGATT	0.55	1.09
UGUACUUCUCCUUGGAGAATT	0.64	0.8
UUUGGAGCUCCCCAAACGCTT	0.26	0.39
UUUGUUGUCCAGUGGUCCGTT	0.43	1.13
UCCUGGAAGUUUGACGUCCTT	1.41	0.88
AAGUGCAUUCCGUGCAAUCTT	0.59	0.92
UCAAGUGCAGUAGUAGAUGTT	0.51	1.09
GAGCAGCUCUCGUAGCCAUTT	0.33	1.01
CUACCAUCAAUCCGGUAGGTT	0.84	0.94
UUCGUCGAUGGCUUCGUCUTT	0.65	0.67
GGGCUGUCAAUGACAGCUUTT	0.6	0.82
AUUAUGUCCUCUACGAUUATT	0.49	0.76
UAUGCUCCUCUUCCUGUUCTT	0.57	1.43
UCUUGGCUUUGACACCGAGTT	0.39	0.48
UUGUGCUGCAUACGGAGCCTT	0.45	1.69
UCUCAUUUACCCUUUGGGGTT	0.33	0.67
AACAUAGCCUCAUACAAGGTT	0.25	0.7

Sequence	remaining TGFBR2 mRNA (TGFBR2 mRNA)	remaining TGFBR1 mRNA (TGFBR1 mRNA)
CCACUGGUGUGGGCCAUAATT	0.51	1.38
UUCAAGGUCAGUCUCUGGGTT	0.51	1.07
GAGGUUGUUGUUGAGCUCGTT	0.73	0.96
AUCCUGAGAUGUCAGCAGCTT	0.4	1.42
UACAUGAUGUAAACGAUAATT	0.54	0.44
GUUCUUGGGCUAUGUCCAATT	0.32	0.89
UGUUCUUGAAGUCCCGCAGTT	0.78	1.69
AUUUCGCACACGUCCGUGUTT	0.61	0.86
UGCAGUGAUAAAGGCUACATT	0.67	0.34
GGUGCCAGGCAUUUUAUCCTT	0.9	1.06
UAGCAUUCAUUUUCCGUGGTT	0.27	0.72
AAUGGGAGACAAGCCAAUUTT	0.25	0.77
AAAUGCUCCACCUCUCGGGTT	0.28	0.37
UAACGUGUGUAUGUCUGGCTT	0.69	0.3
AUGCACCGAACAGCUCCAUTT	0.31	1.56
UCAUAAGCAUGCUCCACACTT	0.62	0.14
UAUCUCAUGAAAGCGCUUCTT	0.25	1.12
CCUCAAUUGACACUUGCCUTT	0.8	1
UCUACCCAGAACUCCACGATT	1.01	0.14
UUUGGCUUCUUCUAGUGACTT	0.51	0.91
UUGAGCGAUUCCAGCUGCATT	0.85	1.77
AUAUCCCGGGAGUUGUCGUTT	0.37	1.1
UUUCCUGGUUGGUGAGCAGTT	0.36	1.29
CAGAGCGAUCACCUUGAACTT	0.17	0.66
AUGGCUAUUCCUGACCACGTT	0.26	0.93

Sequence	remaining TGFBR2 mRNA (TGFBR2 mRNA)	remaining TGFBR1 mRNA (TGFBR1 mRNA)
AUGCCAUUGUGCAUUGUCATT	0.36	0.85
UUAUCCCAUAUGAGCUCAGTT	0.5	1.33
AGCACUGCGAGUACUGUGUTT	1.08	0.33
UGCAUUGGCUCCCACUUCATT	0.33	0.26
AUCCUUGUCUGGAACAGUGTT	0.25	1.33
UCCACGAUGAAGGGAUGCUTT	0.7	1.06
CUUGACUUCUGGGGUCCACTT	0.94	0.92
UUGUCAAAGUGGAACGCUCTT	0.29	0.83
AGCGUCCUGAAGACUGGAUTT	1.03	0.27
GAUGUUCCACAAAUUCCACTT	0.47	0.85
AUUGUUCCGGAAAUAGGUCTT	0.72	1.15
AGUGGUACCACGAGCAAAGTT	0.66	0.88
UCCAUGGAUGCAGAAGUCCTT	0.56	0.96
AAAAACCCUUUCCUGGGGCTT	0.21	0.36
UUUCAUUCCAUUGGAAUUUTT	0.59	1.25
UGGUGAAGAGGCACUUAACTT	1.06	0.69
UGAAUAACCCUCUGGACAGTT	0.83	0.45
UCUCGGAGGCAGUUCCAGCTT	0.82	0.86
AGACUACUGUGGCCAGUAATT	1.1	1.22
UUGGAGCCCUUUCCUUUCUTT	0.26	1.07
UAUAGUCCACAGACACGCUTT	0.97	0.92
AGAUCACCGCGUAGACAACTT	0.65	1.01
UUCAAUAGUUGUCAGAGGCTT	1.62	1.35
ACAGCCUCGAACACUGACATT	0.58	1.04
AUCUAAACUCCUCUGGAGCTT	0.38	0.76

Sequence	remaining TGFBR2 mRNA (TGFBR2 mRNA)	remaining TGFBR1 mRNA (TGFBR1 mRNA)
UUUUCCUGGCCUCUGAUCCTT	0.15	0.99
UGCUUGAGUAGUGCUAGUUTT	0.58	0.71
UGUGUAGCACAUGGGACACTT	0.73	1.05
AGAUCCAGGAUUACGCCAGTT	0.72	0.88
AUCCUUGGAGAUGAGCUGGTT	0.16	0.72
UUCUUCUGGUCCAUACUCATT	0.66	0.45
UGGAGCUGCACAUAUUCCUTT	0.27	1.2
AUGUAUAGUCACGCAGUUCTT	0.24	0.98
AAUGCUGUUGGCAGCCAGATT	0.11	0.71
CAAACAGCGGUUGGAAUAATT	0.33	0.81
AGCUUGUGCCAAGUGCCAUTT	0.33	0.92
AGAAGUGUGACACGGGUCUTT	0.15	0.93
GCUGAAUGAGGGUAGUCUUTT	0.64	0.28
AUGGACAUUUACGGUAGUGTT	0.46	0.44
AUAUAUACUGCUAUGGUCATT	0.39	0.39
ACUUUGGACAUGACCGGCUTT	0.51	1.2
AUGUUCCGCCUGCUUUUGCTT	0.38	1.19
GUUCAGCAGCAGCAGACCATT	0.79	1.16
CCCAAGUCAUCCUGGUUGUTT	0.67	0.83
UUCCUUGGUACGGCCGCUCTT	0.13	0.87
AUGACACCUCAGUCCUUCCTT	0.88	0.38
UGUGCUUGGUCACGGACACTT	0.27	1.86
AGCCCAUGCCCUUCACAAUTT	0.89	0.71
AUGGUGAGAAGACACAGGCTT	0.54	1.33
